Values of other authors in patent publication US20180153872A1, “HETEROARYL CARBONITRILES FOR THE TREATMENT OF DISEASE” (OPKO Health, Inc., priority 2015, published 2018).

Target: NK1 receptor (Homo sapiens, UniProt P25103)
Conditions: Table I compounds; cited from earlier work

NK1 receptor, sequence (P25103 whole entry, species assumed): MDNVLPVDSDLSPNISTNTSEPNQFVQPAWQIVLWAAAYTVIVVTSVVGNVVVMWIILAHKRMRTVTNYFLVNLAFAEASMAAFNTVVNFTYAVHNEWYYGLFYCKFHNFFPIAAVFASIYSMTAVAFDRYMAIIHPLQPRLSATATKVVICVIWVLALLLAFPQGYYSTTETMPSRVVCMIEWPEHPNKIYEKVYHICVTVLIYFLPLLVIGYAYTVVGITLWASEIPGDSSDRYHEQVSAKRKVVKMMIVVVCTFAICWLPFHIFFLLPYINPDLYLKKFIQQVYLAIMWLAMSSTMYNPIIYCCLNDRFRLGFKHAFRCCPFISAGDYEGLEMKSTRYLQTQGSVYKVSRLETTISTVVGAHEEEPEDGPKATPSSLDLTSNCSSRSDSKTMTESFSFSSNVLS

Row | Compound | Ki
1 | CCC(=O)C1(n2cn[nH]c2=O)CC[C@@](CO[C@H](C)c2cc(C(F)(F)F)cc(C(F)(F)F)c2)(c2ccccc2)NC1 (stereo partly drawn) [Compound 19] | 0.1 nM
2 | C[C@@H](OC[C@@]1(c2ccccc2)CCC(CO)(n2cnnc2)CN1)c1cc(C(F)(F)F)cc(C(F)(F)F)c1 (stereo partly drawn) [Compound 12] | 0.05 nM
3 | C[C@@H](OC[C@@]1(c2ccccc2)CC[C@](CNS(C)(=O)=O)(n2cn[nH]c2=O)CN1)c1cc(C(F)(F)F)cc(C(F)(F)F)c1 [Compound 15] | 0.13 nM
4 | C[C@@H](OC[C@@]1(c2ccccc2)CCC(C#N)(N2CCOC2=O)CN1)c1cc(C(F)(F)F)cc(C(F)(F)F)c1 (stereo partly drawn) [Compound 2] | 0.12 nM
5 | CC(=NO)C1(n2cn[nH]c2=O)CCC(COC(C)c2cc(C(F)(F)F)cc(C(F)(F)F)c2)(c2ccccc2)NC1 (stereo not drawn) [Compound 54] | 0.12 nM
6 | C[C@@H](OC[C@@]1(c2ccccc2)CCC(C#N)(N2CCC2=O)CN1)c1cc(C(F)(F)F)cc(C(F)(F)F)c1 (stereo partly drawn) [Compound 9] | 0.18 nM
7 | C[C@@H](OC[C@@]1(c2ccccc2)CCC(C(N)=O)(n2cnnc2)CN1)c1cc(C(F)(F)F)cc(C(F)(F)F)c1 (stereo partly drawn) [Compound 10] | 0.1 nM
8 | C[C@@H](OC[C@@]1(c2ccccc2)CCC(CO)(n2cn[nH]c2=O)CN1)c1cc(C(F)(F)F)cc(C(F)(F)F)c1 (stereo partly drawn) [Compound 23] | 0.12 nM

Test system: pruritus
Conditions: several patients with pruritic drug reactions to antineoplastic drugs; cited from earlier work

Row | Compound | pruritus on the visual analogue scale (VAS)
9 | C[C@@H](O[C@H]1OCCN(Cc2n[nH]c(=O)[nH]2)[C@H]1c1ccc(F)cc1)c1cc(C(F)(F)F)cc(C(F)(F)F)c1 [aprepitant] | decrease in pruritus on the visual analogue scale
